Experimental data reported in PubChem BioAssay (NCI).
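Grown in 96-well plates, cells were treated for 48 hours with each compound at five concentrations. Insufficient inhibition: endpoint recorded as highest concentration tested. At the GI50, growth is halved. TGI denotes the concentration required for complete inhibition of growth.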

Assays:
Test in all cases: DTP human tumour cell line panel, 48 h
[1] = tested on: CCRF-CEM leukemia
[2] = tested on: RXF 393 renal
[3] = tested on: HCT-15 colon
[4] = tested on: OVCAR-3 ovarian
[5] = tested on: SNB-19 CNS
[6] = tested on: SF-539 CNS
[7] = tested on: NCI-H226 lung
[8] = tested on: SNB-75 CNS
[9] = tested on: CAKI-1 renal
[10] = tested on: IGROV1 ovarian

Structure (SMILES)	GI50 [1] [µM]	TGI [1] [µM]	GI50 [2] [µM]	TGI [2] [µM]	GI50 [3] [µM]	TGI [3] [µM]	GI50 [4] [µM]	TGI [4] [µM]	GI50 [5] [µM]	TGI [5] [µM]	GI50 [6] [µM]	TGI [6] [µM]	GI50 [7] [µM]	TGI [7] [µM]	GI50 [8] [µM]	TGI [8] [µM]	GI50 [9] [µM]	TGI [9] [µM]	GI50 [10] [µM]	TGI [10] [µM]
Nc1ncnc2c1ccn2[C@@H]1O[C@H]([C@H](O)c2ccc(Cl)c(F)c2)[C@@H](O)[C@H]1O	> 100	> 100	66.5	> 100	> 100	> 100	> 100	> 100	> 100	> 100	> 100	> 100	34.5	> 100	> 100	> 100	> 100	> 100	48.6	> 100
CCn1ccc(NS(=O)(=O)c2ccc(N)cc2)nc1=O	> 100	> 100	> 100	> 100	> 100	> 100	> 100	> 100	> 100	> 100	> 100	> 100	> 100	> 100	> 100	> 100	> 100	> 100	> 100	> 100
COc1cc(/C=C/C(=O)c2c(C)nc3ccccc3c2C)ccc1OCCCN1CCN(C(=O)c2ccco2)CC1	3	17.9	2.8	10.2	5.74	30.9	9.46	21.3	11.9	31.1	14.4	27.5	13.7	29.9	12.8	27.6	1.86	9.03	6.7	24.6
Cc1cc(=O)oc2cc(OC/C=C3\CCC(=O)O3)ccc12	3.96	30.3	13.1	31.9	10.6	23.9	12.2	28.8	15.5	49.2	13.1	46.1	24	> 63.1	16.8	40.1	7.59	26.8	13.2	28.7
Cc1cc(Cl)cc(Cc2cc(Cl)cc(C)c2O)c1O	3.08	16.1	2.29	6.91	3.06	11.3	2.35	7.83	3.32	16.8	2.45	6.62	4.17	20.1	1.95	7.19	2.32	9.57	5.18	29.5
COc1ccc(N(C)c2nc(Cl)nc3cnn(C)c23)cc1	< 0.0146	> 100	< 0.01	> 100	< 0.01	> 100	< 0.01	> 100	< 0.0131	> 100	< 0.01		< 0.01	> 100	< 0.01	> 100	< 0.01	> 100	< 0.0189	> 100
CCOC(=O)c1cccnc1C(OC(C)=O)OC(C)=O		> 100		> 100		> 100		> 100		> 100		> 100		> 100		> 100		> 100		> 100
COc1ccc2c(c1)C(=O)c1c-2c(Nc2cccc(C(C)=O)c2)nc2ccccc12	> 100	> 100	9.79	31.5	24	> 100	19.7	42.8	5.99	18.3	10.2	22.2	11.7	35.8	5.55	20.5	20.3	43.6	3.67	18.4
CCN(Cc1ccc(F)cc1)c1ccc(CO)c(OC)c1	21.2	72	9.44	23.6	14.6	41	13.1	27.5	43.7	> 100	45.1	> 100	1.15	2.77	11.6	> 100	4.69	33.3	6.62	27.8
N#CC1C(=O)NC(c2ccccc2[N+](=O)[O-])c2sc3c(F)cccc3c21 (centres undefined)	21.6	> 87.4	13.4	56.9	10.4	61.2	0.318	12.7	22.1	> 100	22	72.8	0.273	2.55	1.62	94.9	0.242	5.43	0.0549	5.11
